Assay results published in patent US11142526B2, “Spirocycle compounds and methods of making and using same” (H. Lundbeck A/S, priority 2017, dated 2021).
Read-outs that look alike come from different tables or passages of the source.

Key:
MAGL [1] = molecular target: MAGL (Homo sapiens (Human), UniProt Q99685); assay: In vitro competitive activity-based protein profiling (gel-based, FP-Rh or HT-01 probe); type: biochemical; conditions: for IC50: read-out: MAGL Human PC3 (IC50)
Method: In Vitro Competitive Activity-Based Protein Profiling.
Proteomes (human prefrontal cortex or cell membrane fractions) (50 μL, 1.0 mg/mL total protein concentration) were preincubated with varying concentrations of inhibitors at 37° C. After 30 min, FP-Rh or HT-01 (1.0 μL, 50 μM in DMSO) was added and the mixture was incubated for another 30 min at room temperature. Reactions were quenched with SDS loading buffer (15 μL—4×) and run on SDS-PAGE.

MAGL [2] = molecular target: T1, MAGL (Mus musculus (Mouse), UniProt O35678); assay: Mouse brain proteomes from inhibitor treated mice (oral gavage, brain MAGL activity 4 h after administration); type: in vivo; conditions: 5 mg/kg oral gavage
Method: Preparation of Mouse Brain Proteomes from Inhibitor Treated Mice.
Inhibitors were administered to wild-type C57B1/6J by oral gavage in a vehicle of polyethylene glycol.

MAGL [3] = molecular target: T1, MAGL; assay: In vitro competitive activity-based protein profiling, mouse brain proteome; type: biochemical; conditions: for inhibition at 1 µM: mouse; for IC50: mouse brain
[4] = human PC3, read-out: MAGL % Inhibition at 1 μM (human PC3)

T1 sequence (O35678 whole entry): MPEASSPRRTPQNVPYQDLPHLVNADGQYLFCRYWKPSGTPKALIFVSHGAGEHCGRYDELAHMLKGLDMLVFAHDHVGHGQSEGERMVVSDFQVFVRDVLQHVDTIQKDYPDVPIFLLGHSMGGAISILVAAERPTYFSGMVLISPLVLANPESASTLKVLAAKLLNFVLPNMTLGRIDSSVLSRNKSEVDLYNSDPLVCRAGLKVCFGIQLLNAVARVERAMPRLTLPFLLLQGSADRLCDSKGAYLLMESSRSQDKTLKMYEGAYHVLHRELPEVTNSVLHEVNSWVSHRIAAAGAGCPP
MAGL (Homo sapiens (Human), UniProt Q99685), sequence (Q99685 whole entry): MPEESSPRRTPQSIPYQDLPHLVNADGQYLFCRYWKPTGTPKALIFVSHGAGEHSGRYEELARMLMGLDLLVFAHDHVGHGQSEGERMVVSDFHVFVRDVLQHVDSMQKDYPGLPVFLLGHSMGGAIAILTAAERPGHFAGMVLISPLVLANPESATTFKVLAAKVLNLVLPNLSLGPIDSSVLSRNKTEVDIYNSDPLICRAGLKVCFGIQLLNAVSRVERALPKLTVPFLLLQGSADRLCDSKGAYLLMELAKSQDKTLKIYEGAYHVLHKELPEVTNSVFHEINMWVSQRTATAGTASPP

Structure (SMILES) | inhibition at 1 µM (MAGL [1]; [4]) [%] | inhibition at 1 µM (MAGL [1]; human PFC (prefrontal cortex), read-out: MAGL % Inhibition at 1 μM (human PFC)) [%] | IC50 (MAGL [1]; human PC3) [nM] | inhibition at 1 µM (MAGL [3]) [%] | IC50 (MAGL [3]) [nM] | MAGL % Inhibition at 5 mg/kg (Mouse) (MAGL [2])
CC(C)N1CCn2cc(C(=O)NC3(C)CCN(C(=O)OC(C(F)(F)F)C(F)(F)F)CC3)nc2C1 [Example 182, 1,1,1,3,3,3-Hexafluoropropan-2-yl 4-(7-isopropyl-5,6,7,8-tetrahydroimidazo[1,2-a]pyrazine-2-carboxamido)-4-methylpiperidine-1-carboxylate] | > 75 | > 75 | < 100 |  |  | ### (% inhibition is greater than or equal to 75%)
CC(C)n1cc(CN2CCC3(CCN(C(=O)OC(C(F)(F)F)C(F)(F)F)CC3)C2)c(-c2ccccc2)n1 [Example 6, 1,1,1,3,3,3-Hexafluoropropan-2-yl 2-((1-isopropyl-3-phenyl-1H-pyrazol-4-yl)methyl)-2,8-diazaspiro[4.5]decane-8-carboxylate] |  |  |  | > 75 | < 100 | ## (% inhibition is less than 75% and greater than 25%)
O=C(OC(C(F)(F)F)C(F)(F)F)N1CCC2(CCCN2Cc2ccc3ccccc3n2)CC1 [Example 54, 1,1,1,3,3,3-Hexafluoropropan-2-yl 1-(quinolin-2-ylmethyl)-1,8-diazaspiro [4.5]decane-8-carboxylate] |  |  |  | > 75 | < 100 | ### (% inhibition is greater than or equal to 75%)
O=C(OC(C(F)(F)F)C(F)(F)F)N1CCC2(CCCN2Cc2csc(-c3ccccc3)n2)CC1 [Example 227, 1,1,1,3,3,3-Hexafluoropropan-2-yl 1-((2-phenylthiazol-4-yl)methyl)-1,8-diazaspiro[4.5]decane-8-carboxylate] |  |  |  | > 75 | < 100 | ### (% inhibition is greater than or equal to 75%)
CC1(NC(=O)c2cn3c(n2)CN(S(C)(=O)=O)CC3)CCN(C(=O)OC(C(F)(F)F)C(F)(F)F)CC1 [Example 27, 1,1,1,3,3,3-hexafluoropropan-2-yl 4-methyl-4-(7-(methylsulfonyl)-5,6,7,8-tetrahydroimidazo[1,2-a]pyrazine-2-carboxamido)piperidine-1-carboxylate] | > 75 |  | < 100 |  |  | # (% inhibition less or equal to 25%)
Cc1ccc2sc(CN3CCCC34CCN(C(=O)OC(C(F)(F)F)C(F)(F)F)CC4)cc2c1 [Example 61, 1,1,1,3,3.3-Hexafluoropropan-2-yl 1-((5-methylbenzo[b]thiophen-2-yl)methyl)-1,8-diazaspiro[4.5] decane-8-carboxylate] |  |  |  | > 75 | < 100 | ### (% inhibition is greater than or equal to 75%)
O=C(OC(C(F)(F)F)C(F)(F)F)N1CCC2(CCCN2Cc2cc3c(Cl)cc(Cl)cc3[nH]2)CC1 [Example 11, 1,1,1,3,3,3-Hexafluoropropan-2-yl 1-((4,6-dichloro-1H-indol-2-yl)methyl)-1,8-diazaspiro[4.5]decane-8-carboxylate] |  |  |  | > 75 | < 100 | ### (% inhibition is greater than or equal to 75%)
O=C(OC(C(F)(F)F)C(F)(F)F)N1CCC2(CCCN2Cc2cc3cc(F)ccc3[nH]2)CC1 [Example 52, 1,1,1,3,3,3-Hexafluoropropan-2-yl 1-((5-fluoro-1H-indol-2-yl)methyl)-1,8-diazaspiro[4.5] decane-8-carboxylate] |  |  |  | > 75 | < 100 | ### (% inhibition is greater than or equal to 75%)
CC(C)c1cc(CN2CCC3(CCN(C(=O)OC(C(F)(F)F)C(F)(F)F)CC3)C2)n(C2CCOCC2)n1 [Example 214, 1,1,1,3,3,3-Hexafluoropropan-2-yl 2-((3-isopropyl-1-(tetrahydro-2H-pyran-4-yl)-1H-pyrazol-5-yl)methyl)-2,8-diazaspiro[4.5]decane-8-carboxylate] |  |  |  | > 75 | < 100 | ### (% inhibition is greater than or equal to 75%)
O=C(OC(C(F)(F)F)C(F)(F)F)N1CCC2(CCCN2C(=O)c2ccc3occc3c2)CC1 [Example 77, 1,1,1,3,3,3-Hexafluoropropan-2-yl 1-(benzofuran-5-carbonyl)-1,8-diazaspiro[4.5] decane-8-carboxylate] |  |  |  | > 75 | < 100 | ### (% inhibition is greater than or equal to 75%)
CCc1cc(CN2CCC3(CCN(C(=O)OC(C(F)(F)F)C(F)(F)F)CC3)C2)n(C2CCOCC2)n1 [Example 7, 1,1,1,3,3,3-Hexafluoropropan-2-yl 2-((3-ethyl-1-(tetrahydro-2H-pyran-4-yl)-1H-pyrazol-5-yl)methyl)-2,8-diazaspiro[4.5]decane-8-carboxylate] |  |  |  | > 75 | < 100 | ### (% inhibition is greater than or equal to 75%)
CC(C)n1cc(CN2CCCC23CCN(C(=O)OC(C(F)(F)F)C(F)(F)F)CC3)c(-c2cccc(Cl)c2)n1 [Example 219, 1,1,1,3,3,3-Hexafluoropropan-2-yl 1-((3-(3-chlorophenyl)-1-isopropyl-1H-pyrazol-4-yl)methyl)-1,8-diazaspiro[4.5]decane-8-carboxylate] |  |  |  | > 75 | < 100 | ### (% inhibition is greater than or equal to 75%)
O=C(OC(C(F)(F)F)C(F)(F)F)N1CCC2(CCCN2Cc2sc3ccccc3c2Cl)CC1 [Example 42, 1,1,1,3,3,3-Hexafluoropropan-2-yl 1-((3-chlorobenzo[b]thiophen-2-yl)methyl)-1,8-diazaspiro[4.5] decane-8-carboxylate] |  |  |  | > 75 | < 100 | ### (% inhibition is greater than or equal to 75%)

Second part, led by results:

inhibition at 1 µM (MAGL [1]; [4]) [%] | inhibition at 1 µM (MAGL [1]; human PFC (prefrontal cortex), read-out: MAGL % Inhibition at 1 μM (human PFC)) [%] | IC50 (MAGL [1]; human PC3) [nM] | inhibition at 1 µM (MAGL [3]) [%] | IC50 (MAGL [3]) [nM] | Structure (SMILES) | MAGL % Inhibition at 5 mg/kg (Mouse) (MAGL [2])
 |  |  | > 75 | < 100 | CCc1cc(CN2CCC3(CCN(C(=O)OC(C(F)(F)F)C(F)(F)F)CC3)C2)n(-c2ccccc2Cl)n1 [Example 215, 1,1,1,3,3,3-Hexafluoropropan-2-yl 2-((1-(2-chlorophenyl)-3-ethyl-1H-pyrazol-5-yl)methyl)-2,8-diazaspiro[4.5]decane-8-carboxylate] | ### (% inhibition is greater than or equal to 75%)
 |  |  | > 75 | < 100 | O=C(OC(C(F)(F)F)C(F)(F)F)N1CCC2(CCCN2C(=O)c2cc3cc(Cl)ccc3[nH]2)CC1 [Example 93, 1,1,1,3,3.3-Hexafluoropropan-2-yl 1-(5-chloro-1H-indole-2-carbonyl)-1,8-diazaspiro[4.5] decane-8-carboxylate] | ### (% inhibition is greater than or equal to 75%)
 |  |  |  | < 100 | Cc1c(CN2CCCC23CCN(C(=O)OC(C(F)(F)F)C(F)(F)F)CC3)sc2ccccc12 [Example 43, 1,1,1,3,3,3-Hexafluoropropan-2-yl 1-((3-methylbenzo[b]thiophen-2-yl)methyl)-1,8-diazaspiro[4.5] decane-8-carboxylate] | ### (% inhibition is greater than or equal to 75%)
 |  |  | > 75 | < 100 | CC(C)(C)c1cc(CN2CCC3(CCN(C(=O)OC(C(F)(F)F)C(F)(F)F)CC3)C2)n(C2CCOCC2)n1 [Example 213, 1,1,1,3,3,3-Hexafluoropropan-2-yl 2-((3-(t-butyl)-1-(tetrahydro-2H-pyran-4-yl)-1H-pyrazol-5-yl)methyl)-2,8-diazaspiro[4.5]decane-8-carboxylate] | ### (% inhibition is greater than or equal to 75%)
 |  |  | > 75 | < 100 | O=C(OC(C(F)(F)F)C(F)(F)F)N1CCC2(CCCN2C(=O)c2cc3cc(C(F)(F)F)ccc3s2)CC1 [Example 102, 1,1,1,3,3,3-Hexafluoropropan-2-yl 1-(5-(trifluoromethyl)benzo[b]thiophene-2-carbonyl)-1,8-diazaspiro[4.5] decane-8-carboxylate] | ### (% inhibition is greater than or equal to 75%)
 |  |  | > 75 | < 100 | CC(C)n1cc(CN2CCCC23CCN(C(=O)OC(C(F)(F)F)C(F)(F)F)CC3)c(-c2ccccc2Cl)n1 [Example 222, 1,1,1,3,3,3-Hexafluoropropan-2-yl 1-((3-(2-chlorophenyl)-1-isopropyl-1H-pyrazol-4-yl)methyl)-1,8-diazaspiro[4.5]decane-8-carboxylate] | ### (% inhibition is greater than or equal to 75%)
 |  |  | > 75 | < 100 | O=C(OC(C(F)(F)F)C(F)(F)F)N1CCC2(CCCN2Cc2cc3ccccc3s2)CC1 [Example 223, 1,1,1,3,3,3-Hexafluoropropan-2-yl 1-(benzo[b]thiophen-2-ylmethyl)-1,8-diazaspiro[4.5] decane-8-carboxylate] | ### (% inhibition is greater than or equal to 75%)
 |  |  | > 75 | < 100 | CC(C)c1cc(CN2CCC3(CCN(C(=O)OC(C(F)(F)F)C(F)(F)F)CC3)C2)n(-c2ccccc2Cl)n1 [Example 216, 1,1,1,3,3,3-Hexafluoropropan-2-yl 2-((1-(2-chlorophenyl)-3-isopropyl-1H-pyrazol-5-yl)methyl)-2,8-diazaspiro[4.5]decane-8-carboxylate] | ### (% inhibition is greater than or equal to 75%)
